{
  "source": "patent US20170190671A1",
  "about": "“BIS(ARYL)CATECHOL DERIVATIVES AS HERBICIDES” (E I DU PONT DE NEMOURS AND COMPANY, priority 2014, published 2017)",
  "assay_in_all_cases": "Test D preemergence",
  "type_in_all_cases": "in vivo",
  "conditions_in_all_cases": "scale 0 to 100",
  "key": {"[1]": {"tested_on": "winter wheat (Triticum aestivum)", "from_the_text": "(§1) Seeds of plant species selected from bluegrass (annual bluegrass, Poa annua), blackgrass (Alopecurus myosuroides), canarygrass (Phalaris minor), chickweed (common chickweed, Stellaria media), cutleaf geranium (Geranium dissectum), galium (catchweed bedstraw, Galium aparine), downy bromegrass (Bromus tectorum), field poppy (Papaver rhoeas), field violet (Viola arvensis), green foxtail (Setaria viridis), deadnettle (henbit deadnettle, Lamium amplexicaule), Italian ryegrass (Lolium multiflorum), kochia (Kochia scoparia), lambsquarters (Chenopodium album), oilseed rape (Brassica napus), pigweed (Amaranthus retroflexus), chamomile (scentless chamomile, Matricaria inodora), Russian thistle (Salsola kali), speedwell (bird's-eye speedwell, Veronica persica), spring barley (Hordeum vulgare), spring wheat (Triticum aestivum), wild buckwheat (Polygonum convolvulus), wild mustard (Sinapis arvensis), wild oat (Avenafatua), wild radish (Raphanus raphanistrum), windgrass (Apera spica-venti), winter barley (Hordeum vulgare), and winter wheat (Triticum aestivum) were planted into a silt loam soil and treated preemergence with test chemicals formulated in a non-phytotoxic solvent mixture which included a surfactant.\n(§2) At the same time, these species were planted in pots containing Redi-Earth® planting medium (Scotts Company, 14111 Scottslawn Road, Marysville, Ohio 43041) comprising spaghnum peat moss, vermiculite, wetting agent and starter nutrients and treated with postemergence applications of the test chemicals formulated in the same manner. Plants ranged in height from 2 to 18 cm (1- to 4-leaf stage). Treated plants and controls were maintained in a controlled growth environment for 14 to 21 days after which time all species were compared to controls and visually evaluated. Plant response ratings, summarized in Table D, are based on a scale of 0 to 100 where 0 is no effect and 100 is complete control. A dash (-) response means no test result."}, "[2]": {"tested_on": "windgrass (Apera spica-venti)", "from_the_text": "as §1, §2"}, "[3]": {"tested_on": "wild mustard (Sinapis arvensis)", "from_the_text": "as §1, §2"}, "[4]": {"tested_on": "deadnettle (henbit deadnettle, Lamium amplexicaule)", "from_the_text": "as §1, §2"}, "[5]": {"tested_on": "wild radish (Raphanus raphanistrum)", "from_the_text": "as §1, §2"}, "[6]": {"tested_on": "green foxtail (Setaria viridis)", "from_the_text": "as §1, §2"}, "[7]": {"tested_on": "winter barley (Hordeum vulgare)", "from_the_text": "as §1, §2"}, "[8]": {"tested_on": "chickweed (common chickweed, Stellaria media)", "from_the_text": "as §1, §2"}, "[9]": {"tested_on": "galium (catchweed bedstraw, Galium aparine)", "from_the_text": "as §1, §2"}, "[10]": {"tested_on": "wild buckwheat (Polygonum convolvulus)", "from_the_text": "as §1, §2"}, "[11]": {"tested_on": "downy bromegrass (Bromus tectorum)", "from_the_text": "as §1, §2"}, "[12]": {"tested_on": "spring barley (Hordeum vulgare)", "from_the_text": "as §1, §2"}, "[13]": {"tested_on": "lambsquarters (Chenopodium album)", "from_the_text": "as §1, §2"}, "[14]": {"tested_on": "field violet (Viola arvensis)", "from_the_text": "as §1, §2"}, "[15]": {"tested_on": "Russian thistle (Salsola kali)", "from_the_text": "as §1, §2"}, "[16]": {"tested_on": "blackgrass (Alopecurus myosuroides)", "from_the_text": "as §1, §2"}, "[17]": {"tested_on": "Italian ryegrass (Lolium multiflorum)", "from_the_text": "as §1, §2"}},
  "data": [
    {"molecule": "Fc1cccc(Oc2ncc(C(F)(F)F)cn2)c1Oc1ncc(Cl)cn1", "note": "[Compound 42, 5-chloro-2-[2-fluoro-6-[[5-(trifluoromethyl)-2-pyrimidinyl]oxy]phenoxy]pyrimidine]", "values": [
      {"measurement": "Plant response rating, Wheat, Winter", "setting": "[1]; 16 g ai/ha", "result": 0},
      {"measurement": "Plant response rating, Wheat, Winter", "setting": "[1]; 31 g ai/ha", "result": 0},
      {"measurement": "Plant response rating, Wheat, Winter", "setting": "[1]; 62 g ai/ha", "result": 0},
      {"measurement": "Plant response rating, Wheat, Winter", "setting": "[1]; 125 g ai/ha", "result": 50},
      {"measurement": "Plant response rating, Windgrass", "setting": "[2]; 16 g ai/ha", "result": 15},
      {"measurement": "Plant response rating, Windgrass", "setting": "[2]; 31 g ai/ha", "result": 60},
      {"measurement": "Plant response rating, Windgrass", "setting": "[2]; 62 g ai/ha", "result": 90},
      {"measurement": "Plant response rating, Windgrass", "setting": "[2]; 125 g ai/ha", "result": 100},
      {"measurement": "Plant response rating, Mustard, Wild", "setting": "[3]; 16 g ai/ha", "result": 70},
      {"measurement": "Plant response rating, Mustard, Wild", "setting": "[3]; 31 g ai/ha", "result": 65},
      {"measurement": "Plant response rating, Mustard, Wild", "setting": "[3]; 62 g ai/ha", "result": 85},
      {"measurement": "Plant response rating, Mustard, Wild", "setting": "[3]; 125 g ai/ha", "result": 100},
      {"measurement": "Plant response rating, Deadnettle", "setting": "[4]; 16 g ai/ha", "result": 70},
      {"measurement": "Plant response rating, Deadnettle", "setting": "[4]; 31 g ai/ha", "result": 85},
      {"measurement": "Plant response rating, Deadnettle", "setting": "[4]; 62 g ai/ha", "result": 100},
      {"measurement": "Plant response rating, Deadnettle", "setting": "[4]; 125 g ai/ha", "result": 100},
      {"measurement": "Plant response rating, Radish, Wild", "setting": "[5]; 16 g ai/ha", "result": 25},
      {"measurement": "Plant response rating, Radish, Wild", "setting": "[5]; 62 g ai/ha", "result": 85},
      {"measurement": "Plant response rating, Radish, Wild", "setting": "[5]; 125 g ai/ha", "result": 100},
      {"measurement": "Plant response rating, Foxtail, Green", "setting": "[6]; 16 g ai/ha", "result": 10},
      {"measurement": "Plant response rating, Foxtail, Green", "setting": "[6]; 31 g ai/ha", "result": 60},
      {"measurement": "Plant response rating, Foxtail, Green", "setting": "[6]; 62 g ai/ha", "result": 100},
      {"measurement": "Plant response rating, Foxtail, Green", "setting": "[6]; 125 g ai/ha", "result": 100},
      {"measurement": "Plant response rating, Barley, Winter", "setting": "[7]; 16 g ai/ha", "result": 0},
      {"measurement": "Plant response rating, Barley, Winter", "setting": "[7]; 31 g ai/ha", "result": 0},
      {"measurement": "Plant response rating, Barley, Winter", "setting": "[7]; 62 g ai/ha", "result": 15},
      {"measurement": "Plant response rating, Barley, Winter", "setting": "[7]; 125 g ai/ha", "result": 80},
      {"measurement": "Plant response rating, Chickweed", "setting": "[8]; 16 g ai/ha", "result": 70},
      {"measurement": "Plant response rating, Chickweed", "setting": "[8]; 31 g ai/ha", "result": 100},
      {"measurement": "Plant response rating, Chickweed", "setting": "[8]; 62 g ai/ha", "result": 100},
      {"measurement": "Plant response rating, Chickweed", "setting": "[8]; 125 g ai/ha", "result": 100},
      {"measurement": "Plant response rating, Galium", "setting": "[9]; 16 g ai/ha", "result": 65},
      {"measurement": "Plant response rating, Galium", "setting": "[9]; 31 g ai/ha", "result": 70},
      {"measurement": "Plant response rating, Galium", "setting": "[9]; 62 g ai/ha", "result": 100},
      {"measurement": "Plant response rating, Galium", "setting": "[9]; 125 g ai/ha", "result": 100},
      {"measurement": "Plant response rating, Buckwheat, Wild", "setting": "[10]; 16 g ai/ha", "result": 0},
      {"measurement": "Plant response rating, Buckwheat, Wild", "setting": "[10]; 31 g ai/ha", "result": 0},
      {"measurement": "Plant response rating, Buckwheat, Wild", "setting": "[10]; 62 g ai/ha", "result": 100},
      {"measurement": "Plant response rating, Buckwheat, Wild", "setting": "[10]; 125 g ai/ha", "result": 100},
      {"measurement": "Plant response rating, Bromegrass, Downy", "setting": "[11]; 16 g ai/ha", "result": 0},
      {"measurement": "Plant response rating, Bromegrass, Downy", "setting": "[11]; 31 g ai/ha", "result": 10},
      {"measurement": "Plant response rating, Bromegrass, Downy", "setting": "[11]; 62 g ai/ha", "result": 50},
      {"measurement": "Plant response rating, Bromegrass, Downy", "setting": "[11]; 125 g ai/ha", "result": 65},
      {"measurement": "Plant response rating, Barley, Spring", "setting": "[12]; 16 g ai/ha", "result": 0},
      {"measurement": "Plant response rating, Barley, Spring", "setting": "[12]; 31 g ai/ha", "result": 35},
      {"measurement": "Plant response rating, Barley, Spring", "setting": "[12]; 62 g ai/ha", "result": 15},
      {"measurement": "Plant response rating, Barley, Spring", "setting": "[12]; 125 g ai/ha", "result": 65},
      {"measurement": "Plant response rating, Lambsquarters", "setting": "[13]; 16 g ai/ha", "result": 85},
      {"measurement": "Plant response rating, Lambsquarters", "setting": "[13]; 31 g ai/ha", "result": 100},
      {"measurement": "Plant response rating, Lambsquarters", "setting": "[13]; 62 g ai/ha", "result": 100},
      {"measurement": "Plant response rating, Lambsquarters", "setting": "[13]; 125 g ai/ha", "result": 100},
      {"measurement": "Plant response rating, Field Violet", "setting": "[14]; 16 g ai/ha", "result": 25},
      {"measurement": "Plant response rating, Field Violet", "setting": "[14]; 31 g ai/ha", "result": 100},
      {"measurement": "Plant response rating, Field Violet", "setting": "[14]; 62 g ai/ha", "result": 100},
      {"measurement": "Plant response rating, Field Violet", "setting": "[14]; 125 g ai/ha", "result": 100},
      {"measurement": "Plant response rating, Russian Thistle", "setting": "[15]; 16 g ai/ha", "result": 0},
      {"measurement": "Plant response rating, Russian Thistle", "setting": "[15]; 31 g ai/ha", "result": 20},
      {"measurement": "Plant response rating, Russian Thistle", "setting": "[15]; 62 g ai/ha", "result": 15},
      {"measurement": "Plant response rating, Russian Thistle", "setting": "[15]; 125 g ai/ha", "result": 55},
      {"measurement": "Plant response rating, Blackgrass", "setting": "[16]; 16 g ai/ha", "result": 0},
      {"measurement": "Plant response rating, Blackgrass", "setting": "[16]; 31 g ai/ha", "result": 10},
      {"measurement": "Plant response rating, Blackgrass", "setting": "[16]; 62 g ai/ha", "result": 35},
      {"measurement": "Plant response rating, Blackgrass", "setting": "[16]; 125 g ai/ha", "result": 75},
      {"measurement": "Plant response rating, Ryegrass, Italian", "setting": "[17]; 16 g ai/ha", "result": 0},
      {"measurement": "Plant response rating, Ryegrass, Italian", "setting": "[17]; 31 g ai/ha", "result": 0},
      {"measurement": "Plant response rating, Ryegrass, Italian", "setting": "[17]; 62 g ai/ha", "result": 35},
      {"measurement": "Plant response rating, Ryegrass, Italian", "setting": "[17]; 125 g ai/ha", "result": 70}
    ]}
  ]
}
